Test results reported in PMC13170702 (Nuclear medicine and biology, 2025).

What was measured:
[1] = tested on: 70 other CNS binding sites; details: at 1 μM; cited from earlier work
Sprague-Dawley rats = test: GLP 14-day toxicological study; type: in vivo; details: non-radioactive compound given on two consecutive days

| SMILES | binding at 70 other CNS binding sites [1] | adverse effects (Sprague-Dawley rats) |
| --- | --- | --- |
| NC(CC(=O)Nc1ccc2c(c1)Cc1cc(F)ccc1-2)C(=O)O (centres unmarked) | no binding | – |
| COC(=O)[C@@H](N)CC(=O)Nc1ccc2c(c1)Cc1cc(F)ccc1-2 [RP-115] | – | no overt adverse effects |
